Experimental findings from patent publication US9642381B2, “Orally consumable formulations comprising certain sweet-tasting triterpenes and triterpene glycosides” (Symrise AG, priority 2011, dated 2017) are described below.

Structures are written as SMILES.

Type in all cases: in vivo, human
Experiment [1] relates to group of experts. Briefly: Sensory evaluation of Balansin A and Balansin B by a group of experts. The following applies: 50 ppm in water and in a 5 wt % aqueous saccharose solution; Balansin A described in the aqueous solution. The source says: A group of experts tasted and sensorily evaluated the two isolated compounds Balansin A and Balansin B from Example 4, each at a concentration of 50 ppm in water and a 5 wt % aqueous saccharose solution.

Experiment [2] concerns group of at least five persons. Briefly: Intrinsic sweetness against a saccharose reference series (saccharose equivalents). Conditions: 50 ppm, against saccharose reference series in water. The text has this: To determine the sweet impression of the extracts according to the invention or of the compounds according to the invention of the formula (I) compared to an aqueous saccharose solution, an aqueous solution of one or a plurality of compounds of the formula (I) is produced in the same concentration as is present in the orally consumable formulation under study. This aqueous solution is then compared and rated for taste by a group of at least five persons against a reference series of different saccharose concentrations in water. In this way, the saccharose equivalence is determined (indicated in saccharose equivalents), in other words, the concentration of the saccharose solution, whose sweet impression is equivalent to the sweet impression of the concentration of compounds of the formula (I). Preferred concentrations of the saccharose reference solution are 0; 0.25; 0.5; 0.75; 1; 1.5; 2; 3; 4 and 5 wt % saccharose in water. If necessary, other concentrations, particularly higher concentrations, can also be used for the reference series. The ascertained saccharose equivalent is obtained from the mean value of the individual rating of the individual panelists. The panelists are preferably persons who have experience in the field of tasting, are of different age and gender and come from different backgrounds. […]

The test system of experiment [3] is group of experts. Briefly: Reinforcing the sweet impression of a 5 wt % saccharose solution. The following applies: for % Reinforcement of the sweet impression: versus saccharose solution alone; for Sweet impression (1-10) with: rating 1 [not sweet] to 10 [extremely sweet]. On the procedure:
In order to quantify the reinforcement of the sweet impression, the sweetness of a 5 wt %-containing saccharose solution and of a sample which contained 5 wt % saccharose and a quantity of the test substance or test extract was determined by a group of experts (rating 1 [not sweet] to 10 [extremely sweet]). The analysis was performed as a calculation of the […] (in %) of the sweet impression from the average values of the assessments of the saccharose solution and of the solution containing saccharose and Compound 2 (p was determined as a significance measure according to the paired, two-tailed Student's statistical test).

Setting [4] is: 50 ppm in 5 wt % saccharose solution.
Where [5] appears, read: 25 ppm in 5 wt % saccharose solution.

Regarding `CC(C)(O)C(O)C/C=C(\CO)[C@H]1CC[C@]2(C)[C@@H]1CC[C@@H]1[C@@]3(C)CC[C@H](O[C@@H]4O[C@H](COC5OC(CO)[C@@H](O)[C@H](O)[C@H]5O)[C@@H](O)[C@H](O)[C@H]4OC4O[C@H](CO)[C@@H](O)[C@H](O)[C@H]4O)C(C)(C)[C@@H]3CC[C@]12C` (some centres unmarked) [Balansin B], in the experiment with group of experts [1], the “Sensory evaluation (taste description)” value is “slightly bitter, slightly sweetener-type and weakly ethanolic, but otherwise displayed no noticeable intrinsic taste”. For the same compound, in experiment [2], the “Intrinsic sweetness, equivalent to the sweetness of saccharose” value is listed as 1 % saccharose. Further, in the experiment with group of experts [3] (setting [4]), the “% Reinforcement of the sweet impression” value is on record as 31% (p < 0.0005) and the “Sweet impression (1-10) with” value worked out at 6.7 ± 1.1.

`CC(C)(O)C(O)C/C=C(\CO)[C@H]1CC[C@]2(C)[C@@H]1CC[C@@H]1[C@@]3(C)CC[C@H](O[C@@H]4O[C@H](CO)[C@@H](O)[C@H](O)[C@H]4OC4O[C@H](CO)[C@@H](O)[C@H](O)[C@H]4O)C(C)(C)[C@@H]3CC[C@]12C` (some centres unmarked) [Balansin A]: the “Sensory evaluation (taste description)” value in the experiment with group of experts [1] was “intensely sweet, also as slightly bitter and displayed a sweetener-type note”. For the same compound, the “Intrinsic sweetness, equivalent to the sweetness of saccharose” value in experiment [2] amounted to 2 % saccharose. In the experiment on group of experts [3] (setting [5]), the “% Reinforcement of the sweet impression” value is given as 48% (p < 0.00005) and the “Sweet impression (1-10) with” value amounted to 7.2 ± 1.4.
